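Where inhibition never reached the appropriate level, the endpoint shown equals the highest concentration tested. Otherwise, values were interpolated linearly from a five-concentration, 48-hour dose response in 96-well plates. At the GI50, growth is halved. TGI is the concentration that stops growth completely.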
Tests used:
Experiment in all cases: growth of human tumour cells (NCI), 48 h
NCI/ADR-RES ovarian = system: NCI/ADR-RES ovarian
ACHN renal = system: ACHN renal
HL-60(TB) leukemia = system: HL-60(TB) leukemia
OVCAR-5 ovarian = system: OVCAR-5 ovarian
T-47D breast = system: T-47D breast
SF-539 CNS = system: SF-539 CNS
RXF 393 renal = system: RXF 393 renal
TK-10 renal = system: TK-10 renal
SF-268 CNS = system: SF-268 CNS
IGROV1 ovarian = system: IGROV1 ovarian
MDA-MB-231 breast = system: MDA-MB-231 breast
UACC-257 melanoma = system: UACC-257 melanoma
HOP-62 NSCLC = system: HOP-62 NSCLC
NCI-H226 lung = system: NCI-H226 lung
HCT-116 colon = system: HCT-116 colon
MOLT-4 leukemia = system: MOLT-4 leukemia
CAKI-1 renal = system: CAKI-1 renal
SF-295 CNS = system: SF-295 CNS
EKVX NSCLC = system: EKVX NSCLC
DU-145 prostate = system: DU-145 prostate
MCF7 breast = system: MCF7 breast
MDA-MB-468 breast = system: MDA-MB-468 breast
KM12 colon = system: KM12 colon
UACC-62 melanoma = system: UACC-62 melanoma
SNB-19 CNS = system: SNB-19 CNS
SK-MEL-28 melanoma = system: SK-MEL-28 melanoma
MDA-MB-435 = system: MDA-MB-435
U251 CNS = system: U251 CNS
OVCAR-4 ovarian = system: OVCAR-4 ovarian
HS 578T breast = system: HS 578T breast
786-0 renal = system: 786-0 renal
SK-MEL-5 melanoma = system: SK-MEL-5 melanoma
UO-31 renal = system: UO-31 renal
A498 renal = system: A498 renal
SR leukemia = system: SR leukemia
NCI-H23 lung = system: NCI-H23 lung
COLO 205 colon = system: COLO 205 colon
HT29 colon = system: HT29 colon
M14 melanoma = system: M14 melanoma
PC-3 prostate = system: PC-3 prostate
RPMI-8226 leukemia = system: RPMI-8226 leukemia
A549 NSCLC = system: A549 NSCLC
OVCAR-3 ovarian = system: OVCAR-3 ovarian
BT-549 breast = system: BT-549 breast
HOP-92 NSCLC = system: HOP-92 NSCLC
CCRF-CEM leukemia = system: CCRF-CEM leukemia
NCI-H522 lung = system: NCI-H522 lung
NCI-H460 lung = system: NCI-H460 lung
K-562 leukemia = system: K-562 leukemia
SN12C renal = system: SN12C renal
HCC-2998 colon = system: HCC-2998 colon
SW-620 colon = system: SW-620 colon
MALME-3M melanoma = system: MALME-3M melanoma
SK-MEL-2 melanoma = system: SK-MEL-2 melanoma
HCT-15 colon = system: HCT-15 colon
OVCAR-8 ovarian = system: OVCAR-8 ovarian
SK-OV-3 ovarian = system: SK-OV-3 ovarian
LOX IMVI melanoma = system: LOX IMVI melanoma
SNB-75 CNS = system: SNB-75 CNS

CCCCN1C(=O)/C(=C\C(=O)c2cc3ccccc3oc2=O)c2ccccc21
GI50 (NCI/ADR-RES ovarian): 22.9 µM | TGI (NCI/ADR-RES ovarian): 64.3 µM | GI50 (ACHN renal): 13.4 µM | TGI (ACHN renal): 26.1 µM | GI50 (HL-60(TB) leukemia): 3.06 µM | TGI (HL-60(TB) leukemia): 11.9 µM | GI50 (OVCAR-5 ovarian): 30.6 µM | TGI (OVCAR-5 ovarian): > 100 µM | GI50 (T-47D breast): 14 µM | TGI (T-47D breast): 28.7 µM | GI50 (SF-539 CNS): 16.2 µM | TGI (SF-539 CNS): 30 µM | GI50 (RXF 393 renal): 15.7 µM | TGI (RXF 393 renal): 29.6 µM | GI50 (TK-10 renal): 20.9 µM | TGI (TK-10 renal): 35.8 µM | GI50 (SF-268 CNS): 16.9 µM | TGI (SF-268 CNS): 36.3 µM | GI50 (IGROV1 ovarian): 24.5 µM | TGI (IGROV1 ovarian): 94.8 µM | GI50 (MDA-MB-231 breast): 14.3 µM | TGI (MDA-MB-231 breast): 27.6 µM | GI50 (UACC-257 melanoma): 14.7 µM | TGI (UACC-257 melanoma): 31.3 µM | GI50 (HOP-62 NSCLC): > 100 µM | TGI (HOP-62 NSCLC): > 100 µM | GI50 (NCI-H226 lung): 14.4 µM | TGI (NCI-H226 lung): 31.7 µM | GI50 (HCT-116 colon): 16.3 µM | TGI (HCT-116 colon): 31.1 µM | GI50 (MOLT-4 leukemia): 22.4 µM | TGI (MOLT-4 leukemia): 64 µM | GI50 (CAKI-1 renal): 14.2 µM | TGI (CAKI-1 renal): 27.8 µM | GI50 (SF-295 CNS): > 100 µM | TGI (SF-295 CNS): > 100 µM | GI50 (EKVX NSCLC): 15.5 µM | TGI (EKVX NSCLC): 32 µM | GI50 (DU-145 prostate): 16.7 µM | TGI (DU-145 prostate): 33.2 µM | GI50 (MCF7 breast): 12.6 µM | TGI (MCF7 breast): 28.7 µM | GI50 (MDA-MB-468 breast): 4.5 µM | TGI (MDA-MB-468 breast): 17.8 µM | GI50 (KM12 colon): > 100 µM | TGI (KM12 colon): > 100 µM | GI50 (UACC-62 melanoma): 14.6 µM | TGI (UACC-62 melanoma): 29.7 µM | GI50 (SNB-19 CNS): > 100 µM | TGI (SNB-19 CNS): > 100 µM | GI50 (SK-MEL-28 melanoma): 15.5 µM | TGI (SK-MEL-28 melanoma): 29.1 µM | GI50 (MDA-MB-435): 17.6 µM | TGI (MDA-MB-435): 41.6 µM | GI50 (U251 CNS): > 100 µM | TGI (U251 CNS): > 100 µM | GI50 (OVCAR-4 ovarian): 16.9 µM | TGI (OVCAR-4 ovarian): 35.4 µM | GI50 (HS 578T breast): 20.7 µM | TGI (HS 578T breast): > 100 µM | GI50 (786-0 renal): 18 µM | TGI (786-0 renal): 31.9 µM | GI50 (SK-MEL-5 melanoma): 48.7 µM | TGI (SK-MEL-5 melanoma): > 100 µM | GI50 (UO-31 renal): 11.4 µM | TGI (UO-31 renal): 23.7 µM | GI50 (A498 renal): > 100 µM | TGI (A498 renal): > 100 µM | GI50 (SR leukemia): 23 µM | TGI (SR leukemia): 86.1 µM | GI50 (NCI-H23 lung): 27.4 µM | TGI (NCI-H23 lung): > 100 µM | GI50 (COLO 205 colon): 17 µM | TGI (COLO 205 colon): 31.1 µM | GI50 (HT29 colon): 20.3 µM | TGI (HT29 colon): 41.2 µM | GI50 (M14 melanoma): 14.8 µM | TGI (M14 melanoma): 29.3 µM | GI50 (PC-3 prostate): 32.2 µM | TGI (PC-3 prostate): > 100 µM | GI50 (RPMI-8226 leukemia): 19.9 µM | TGI (RPMI-8226 leukemia): 54.4 µM | GI50 (A549 NSCLC): > 100 µM | TGI (A549 NSCLC): > 100 µM | GI50 (OVCAR-3 ovarian): 15.2 µM | TGI (OVCAR-3 ovarian): 29.7 µM | GI50 (BT-549 breast): 19.4 µM | TGI (BT-549 breast): 70.1 µM | GI50 (HOP-92 NSCLC): 13 µM | TGI (HOP-92 NSCLC): 27.7 µM | GI50 (CCRF-CEM leukemia): 4.26 µM | TGI (CCRF-CEM leukemia): 24.2 µM | GI50 (NCI-H522 lung): 14.3 µM | TGI (NCI-H522 lung): 28.7 µM | GI50 (NCI-H460 lung): > 100 µM | TGI (NCI-H460 lung): > 100 µM | GI50 (K-562 leukemia): 11.6 µM | TGI (K-562 leukemia): 84.7 µM | GI50 (SN12C renal): 14.7 µM | TGI (SN12C renal): 30 µM | GI50 (HCC-2998 colon): > 100 µM | TGI (HCC-2998 colon): > 100 µM | GI50 (SW-620 colon): 14.3 µM | TGI (SW-620 colon): 29.7 µM | GI50 (MALME-3M melanoma): 13.7 µM | TGI (MALME-3M melanoma): 26.7 µM | GI50 (SK-MEL-2 melanoma): 52 µM | TGI (SK-MEL-2 melanoma): > 100 µM | GI50 (HCT-15 colon): 15.6 µM | TGI (HCT-15 colon): 30.7 µM | GI50 (OVCAR-8 ovarian): 18.3 µM | TGI (OVCAR-8 ovarian): 47.5 µM | GI50 (SK-OV-3 ovarian): > 100 µM | TGI (SK-OV-3 ovarian): > 100 µM | GI50 (LOX IMVI melanoma): 15.2 µM | TGI (LOX IMVI melanoma): 28.7 µM | GI50 (SNB-75 CNS): 19 µM | TGI (SNB-75 CNS): > 100 µM

From PubChem BioAssay (NCI)
